Assay results from ChEMBL document CHEMBL3769313, “Synthesis, structural characterization, docking, lipophilicity and cytotoxicity of 1-[(1R)-1-(6-fluoro-1,3-benzothiazol-2-yl)ethyl]-3-alkyl carbamates, novel acetylcholinesterase and butyrylcholinesterase pseudo-irreversible inhibitors” (Bioorg Med Chem, 2016).
Activity calls are given as the source filed them. No cut-off for these calls is given here.

Experiments:
[1] = Selectivity ratio of IC50 for electric eel AChE to IC50 for equine serum BChE
Acetylcholinesterase [2] = target: Acetylcholinesterase (Electrophorus electricus, UniProt O42275); experiment: Inhibition of electric eel AChE by spectrophotometric-based Ellman's method
Cholinesterase = Cholinesterase (Equus caballus, UniProt P81908); experiment: Inhibition of equine serum BChE by spectrophotometric-based Ellman's method
[3] = target: Acetylcholinesterase (Electrophorus electricus) (UniProt O42275); experiment: Potency index, ratio of rivastigmine IC50 to compound IC50 for electric eel AChE
SK-BR-3 [4] = experiment: Cytotoxicity against human SK-BR-3 cells assessed as decrease in cell proliferation index at 1 to 100 uM after 91 hrs by real-time cell analysis; type: cell-based; conditions: sk-br-3, 91 h
[5] = Cytotoxicity against human Jurkat cells assessed as cell viability at 100 uM after 48 hrs by XTT assay relative to control; type: cell-based; conditions: read-out: Activity
[6] = Cytotoxicity against human Jurkat cells assessed as cell viability at 50 uM after 48 hrs by XTT assay relative to control; type: cell-based; conditions: read-out: Activity
[7] = Cytotoxicity against human Jurkat cells assessed as cell viability at 250 uM after 48 hrs by XTT assay relative to control; type: cell-based; conditions: read-out: Activity
SK-BR-3 [8] = experiment: Cytotoxicity against human SK-BR-3 cells assessed as decrease in cell proliferation index at 250 uM by real-time cell analysis; type: cell-based; conditions: sk-br-3, 250 µM, TDE = time-dependent effect
[9] = Cytotoxicity against human Jurkat cells assessed as cell viability at 10 uM after 48 hrs by XTT assay relative to control; type: cell-based; conditions: read-out: Activity
[10] = Cytotoxicity against human Jurkat cells assessed as cell viability at 1 uM after 48 hrs by XTT assay relative to control; type: cell-based; conditions: read-out: Activity
[11] = n-Octanol-water partition coefficient, log P of the compound after 15 mins by shake flask method; type: physicochemical
[12] = target: Acetylcholinesterase (Electrophorus electricus) (UniProt O42275); experiment: Pseudo-irreversible inhibition of electric eel AChE at 4 to 8 uM by spectrophotometric-based Ellman's method
Acetylcholinesterase [13] = target: Acetylcholinesterase (Torpedo californica, UniProt P04058); experiment: Pseudo-irreversible inhibition of Torpedo californica AChE using acetylthiocholine as substrate by cornish bowden plot analysis; set-up: species or system Tetronarce californica
SK-BR-3 [14] = experiment: Cytotoxicity against human SK-BR-3 cells assessed as decrease in cell proliferation index at 250 uM after 91 hrs by real-time cell analysis; type: cell-based; conditions: sk-br-3, 91 h
[15] = target: Acetylcholinesterase (Electrophorus electricus) (UniProt O42275); experiment: Pseudo-irreversible inhibition of electric eel AChE at 5 to 9 uM by spectrophotometric-based Ellman's method
[16] = target: Acetylcholinesterase (Electrophorus electricus) (UniProt O42275); conditions: 6 to 10 uM
Description: Pseudo-irreversible inhibition of electric eel AChE at 6 to 10 uM by spectrophotometric-based Ellman's method

Sequence of Cholinesterase (P81908 whole entry): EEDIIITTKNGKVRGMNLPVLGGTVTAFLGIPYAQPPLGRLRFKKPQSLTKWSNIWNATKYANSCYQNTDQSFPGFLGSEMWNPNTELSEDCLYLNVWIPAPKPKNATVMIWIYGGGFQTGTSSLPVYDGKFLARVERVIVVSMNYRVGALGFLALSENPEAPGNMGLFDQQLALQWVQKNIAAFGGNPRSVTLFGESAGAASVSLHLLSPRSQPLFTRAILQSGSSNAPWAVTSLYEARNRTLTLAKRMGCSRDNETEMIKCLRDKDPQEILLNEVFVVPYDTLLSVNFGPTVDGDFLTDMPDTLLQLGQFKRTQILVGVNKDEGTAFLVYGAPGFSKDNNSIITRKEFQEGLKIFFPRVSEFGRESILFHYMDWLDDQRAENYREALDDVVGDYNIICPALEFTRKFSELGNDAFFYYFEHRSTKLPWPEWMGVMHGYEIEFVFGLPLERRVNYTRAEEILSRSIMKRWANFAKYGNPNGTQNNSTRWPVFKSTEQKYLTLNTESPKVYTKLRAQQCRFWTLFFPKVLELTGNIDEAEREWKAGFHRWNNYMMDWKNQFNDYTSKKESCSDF
Sequence of Acetylcholinesterase (Electrophorus electricus) (O42275 24-633 limits assumed): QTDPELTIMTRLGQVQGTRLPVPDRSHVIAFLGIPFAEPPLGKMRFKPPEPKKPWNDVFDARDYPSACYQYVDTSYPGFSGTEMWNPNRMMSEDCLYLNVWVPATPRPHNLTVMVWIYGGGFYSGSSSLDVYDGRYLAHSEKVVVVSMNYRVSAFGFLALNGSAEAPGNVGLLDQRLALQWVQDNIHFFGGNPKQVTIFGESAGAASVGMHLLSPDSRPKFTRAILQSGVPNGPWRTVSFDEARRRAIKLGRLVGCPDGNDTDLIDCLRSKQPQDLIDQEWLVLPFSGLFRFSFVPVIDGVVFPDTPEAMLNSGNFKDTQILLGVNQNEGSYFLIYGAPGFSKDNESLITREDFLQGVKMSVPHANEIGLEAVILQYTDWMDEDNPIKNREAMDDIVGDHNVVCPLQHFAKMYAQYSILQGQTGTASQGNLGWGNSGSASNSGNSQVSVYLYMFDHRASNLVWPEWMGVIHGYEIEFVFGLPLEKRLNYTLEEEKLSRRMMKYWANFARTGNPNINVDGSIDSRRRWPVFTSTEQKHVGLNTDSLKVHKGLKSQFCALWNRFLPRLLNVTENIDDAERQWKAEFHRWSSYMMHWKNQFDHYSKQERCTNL
Sequence of Acetylcholinesterase (Electrophorus electricus, UniProt O42275) (O42275 whole entry): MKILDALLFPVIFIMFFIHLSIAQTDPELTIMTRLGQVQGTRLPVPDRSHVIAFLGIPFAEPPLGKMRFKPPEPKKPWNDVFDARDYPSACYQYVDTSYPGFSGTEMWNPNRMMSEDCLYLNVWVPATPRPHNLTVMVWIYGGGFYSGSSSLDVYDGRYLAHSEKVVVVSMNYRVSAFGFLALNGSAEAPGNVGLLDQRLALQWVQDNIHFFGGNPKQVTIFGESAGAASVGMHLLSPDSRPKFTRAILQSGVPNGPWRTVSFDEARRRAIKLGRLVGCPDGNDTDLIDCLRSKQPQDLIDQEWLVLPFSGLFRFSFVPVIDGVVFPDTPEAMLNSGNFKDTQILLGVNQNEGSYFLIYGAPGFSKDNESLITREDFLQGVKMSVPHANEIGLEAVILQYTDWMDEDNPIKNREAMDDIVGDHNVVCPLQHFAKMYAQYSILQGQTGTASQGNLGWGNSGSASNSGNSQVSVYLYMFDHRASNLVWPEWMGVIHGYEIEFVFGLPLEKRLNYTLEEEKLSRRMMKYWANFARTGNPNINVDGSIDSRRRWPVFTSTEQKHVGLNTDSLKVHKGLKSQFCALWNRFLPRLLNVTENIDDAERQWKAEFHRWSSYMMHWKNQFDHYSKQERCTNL
Sequence of Acetylcholinesterase (Torpedo californica, UniProt P04058) (P04058 whole entry): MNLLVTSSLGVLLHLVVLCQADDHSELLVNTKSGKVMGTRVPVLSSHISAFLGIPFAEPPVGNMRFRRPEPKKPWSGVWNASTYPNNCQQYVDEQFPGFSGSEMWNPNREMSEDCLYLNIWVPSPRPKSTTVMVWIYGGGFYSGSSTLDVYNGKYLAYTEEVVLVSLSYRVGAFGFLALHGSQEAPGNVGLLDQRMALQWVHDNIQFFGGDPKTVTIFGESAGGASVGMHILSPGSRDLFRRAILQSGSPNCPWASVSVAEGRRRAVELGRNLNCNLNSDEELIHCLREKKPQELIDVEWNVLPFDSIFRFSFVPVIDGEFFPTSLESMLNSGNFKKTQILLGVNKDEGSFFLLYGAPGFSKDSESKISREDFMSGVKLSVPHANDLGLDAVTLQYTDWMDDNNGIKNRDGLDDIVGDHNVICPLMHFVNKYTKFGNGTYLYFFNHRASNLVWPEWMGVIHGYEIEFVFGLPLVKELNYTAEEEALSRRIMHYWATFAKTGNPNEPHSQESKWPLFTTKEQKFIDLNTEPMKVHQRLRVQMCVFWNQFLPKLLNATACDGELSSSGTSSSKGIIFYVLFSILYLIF

Row | SMILES | Ratio IC50 [1] | IC50 (Acetylcholinesterase [2]) | IC50 (Cholinesterase) | logP at 0.25 h [11] | further results
1 | CCCCOC(=O)N[C@H](C)c1nc2ccc(F)cc2s1 | 0.23 | 9.26 µM | 40.9 µM | 4.82 | Ratio IC50 [3]: < 10; Activity (SK-BR-3 [4]): Non-toxic; viability at 48 h, 100 µM [5]: 66.8%; viability at 48 h, 50 µM [6]: 88.7%; viability at 48 h, 250 µM [7]: 49.5%; Activity (SK-BR-3 [8]): tde; viability at 48 h, 10 µM [9]: 80.2%; viability at 48 h, 1 µM [10]: 90.3%
2 | COC(=O)N[C@H](C)c1nc2ccc(F)cc2s1 | 0.15 | 13.6 µM | 90.3 µM | 2.5 | –
3 | CCOC(=O)N[C@H](C)c1nc2ccc(F)cc2s1 | 0.3 | 6.06 µM | 20.1 µM | 4.2 | Ratio IC50 [3]: < 10; viability at 48 h, 100 µM [5]: 85.6%; viability at 48 h, 50 µM [6]: 87.9%; viability at 48 h, 250 µM [7]: 77%; viability at 48 h, 10 µM [9]: 87.6%; viability at 48 h, 1 µM [10]: 87.4%; inhibition [12]: Active
4 | CC(C)OC(=O)N[C@H](C)c1nc2ccc(F)cc2s1 | 0.51 | 16.5 µM | 32.7 µM | 5.33 | –
5 | C[C@@H](NC(=O)OCC(F)(F)C(F)(F)C(F)(F)F)c1nc2ccc(F)cc2s1 | 1.1 | 81.9 µM | 74.5 µM | 3.2 | –
6 | C[C@@H](NC(=O)OCC(Cl)(Cl)Cl)c1nc2ccc(F)cc2s1 | 11.1 | 92.2 µM | 8.31 µM | 2.34 | –
7 | C[C@@H](NC(=O)OCCCCl)c1nc2ccc(F)cc2s1 | 2.07 | 80.5 µM | 38.8 µM | 1.92 | –
8 | CC(C)COC(=O)N[C@H](C)c1nc2ccc(F)cc2s1 | 0.32 | 12.9 µM | 40.2 µM | 4.24 | –
9 | CCN(C)C(=O)Oc1cccc([C@H](C)N(C)C)c1 [RIVASTIGMINE] | – | – | – | – | Ki (Acetylcholinesterase [13]): 0.033 M⁻¹ s⁻¹
10 | C[C@@H](NC(=O)OCCCl)c1nc2ccc(F)cc2s1 | 0.31 | 12.7 µM | 41.2 µM | 3.09 | –
11 | C[C@@H](NC(=O)OCCBr)c1nc2ccc(F)cc2s1 | 0.3 | 11.4 µM | 38.4 µM | 3.17 | –
12 | CCCOC(=O)N[C@H](C)c1nc2ccc(F)cc2s1 | 0.38 | 13.1 µM | 34.6 µM | 4.56 | –
13 | C[C@@H](NC(=O)OCC(F)(F)F)c1nc2ccc(F)cc2s1 | 0.64 | 40.5 µM | 63.4 µM | 2.69 | –
14 | C[C@@H](NC(=O)OCC(F)(F)C(F)F)c1nc2ccc(F)cc2s1 | 0.27 | 6.75 µM | 25 µM | 2.92 | Activity (SK-BR-3 [14]): Toxic; Ratio IC50 [3]: < 10; Activity (SK-BR-3 [4]): Non-toxic; viability at 48 h, 100 µM [5]: 82.9%; inhibition [15]: Active; viability at 48 h, 50 µM [6]: 89.3%; viability at 48 h, 250 µM [7]: 80.3%; viability at 48 h, 10 µM [9]: 85.3%; viability at 48 h, 1 µM [10]: 93%
15 | COCCOC(=O)N[C@H](C)c1nc2ccc(F)cc2s1 | 0.85 | 56.2 µM | 66.3 µM | 3.35 | –
16 | C[C@@H](NC(=O)OC(C)(C)C)c1nc2ccc(F)cc2s1 | 0.46 | 10.5 µM | 23.1 µM | 4.41 | –
17 | C[C@@H](NC(=O)OCC(F)(F)Cl)c1nc2ccc(F)cc2s1 | 0.32 | 8.14 µM | 25.6 µM | 2.82 | inhibition [16]: Active; Ratio IC50 [3]: < 10; viability at 48 h, 100 µM [5]: 85.7%; viability at 48 h, 50 µM [6]: 89.6%; viability at 48 h, 250 µM [7]: 74%; viability at 48 h, 10 µM [9]: 86.6%; viability at 48 h, 1 µM [10]: 91.1%
